From patent publication US12570662B2, “Substituted pyrrolo[1,2-b]pyridazines as bifunctional degraders of interleukin-1 receptor-associated kinases” (Nurix Therapeutics, Inc., priority 2021, dated 2026) come the findings set out here.

For the experiment, the target named is T1, IRAK4 (Homo sapiens, UniProt Q9NWZ3).
T1 construct: C-terminal HiBiT-tagged Jurkat cells (polyclonal cell line or clone 8D5); endogenous in cells; host or cells: Jurkat cells (polyclonal cell line or clone 8D5), HiBiT-tagged
T1 sequence (Q9NWZ3 1-460): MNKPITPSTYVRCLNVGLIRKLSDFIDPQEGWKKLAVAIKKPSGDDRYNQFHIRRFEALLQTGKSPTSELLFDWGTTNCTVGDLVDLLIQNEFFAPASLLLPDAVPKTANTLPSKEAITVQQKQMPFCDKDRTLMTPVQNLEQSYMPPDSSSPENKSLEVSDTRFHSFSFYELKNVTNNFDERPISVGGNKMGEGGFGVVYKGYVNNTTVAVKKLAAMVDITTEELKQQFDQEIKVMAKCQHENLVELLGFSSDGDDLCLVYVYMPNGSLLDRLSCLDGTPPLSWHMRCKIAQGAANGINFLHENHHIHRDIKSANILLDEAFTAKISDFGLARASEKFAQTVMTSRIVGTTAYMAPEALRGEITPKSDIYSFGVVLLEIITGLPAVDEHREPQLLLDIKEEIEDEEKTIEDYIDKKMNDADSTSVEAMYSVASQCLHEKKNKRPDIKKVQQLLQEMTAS
In words: IRAK4 Degradation HiBit Assay. The experiment is classed as cell-based. Conditions: C-terminal HiBiT-tagged Jurkat cells, 4 hrs incubation; for DC50: % IRAK4 remaining, four-parameter fit (IC50 used as DC50); for Dmax: from fit of % IRAK4 remaining. The procedure, abridged: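 Degradation was quantified by luminescence after adding lytic detection reagent containing LgBiT to HiBiT-tagged Jurkat cells (polyclonal or clone 8D5). Cells were treated 4 h at 32 °C across 11 concentrations from 10 μM to 0.1 nM final. Four-parameter curve fitting of % IRAK4 remaining versus DMSO gave DC50 and Dmax.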

Like-named read-outs stand apart in the source and are kept apart here.

`N#Cc1cnn2c(-c3cc(NC4CCOCC4)c(-c4nnc(N5CC6CCC(C5)N6CC5CCN(c6ccc([C@H]7CCC(=O)NC7=O)cc6)CC5)s4)cn3)ccc2c1` (racemic) [Example 85, rac-7-[5-(5-{8-[(1-{4-[(3R)-2,6-dioxopiperidin-3-yl]phenyl}piperidin-4-yl)methyl]-3,8-diazabicyclo[3.2.1]octan-3-yl}-1,3,4-thiadiazol-2-yl)-4-[(oxan-4-yl)amino]pyridin-2-yl]pyrrolo[1,2-b]pyridazine-3-carbonitrile] showed a DC50 of 25 nM. Further, the Dmax (read-out: Dmax) amounted to 73%.
As for `N#Cc1cnn2c(-c3cc(N[C@H]4CCOC4)c(-c4nnc(N5CC6CCC(C5)N6CC5CCN(c6ccc(C7CCC(=O)NC7=O)cn6)CC5)s4)cn3)ccc2c1` (mixture of isomers) [Example 87, 7-[5-(5-{8-[(1-{5-[(3RS)-2,6-dioxopiperidin-3-yl]pyridin-2-yl}piperidin-4-yl)methyl]-3,8-diazabicyclo[3.2.1]octan-3-yl}-1,3,4-thiadiazol-2-yl)-4-{[(3S)-oxolan-3-yl]amino}pyridin-2-yl]pyrrolo[1,2-b]pyridazine-3-carbonitrile], the DC50 was found to be 47 nM. The Dmax (read-out: Dmax) stood at 61%.
`N#Cc1cnn2c(-c3cc(NC4CCOCC4)c(-c4nnc(N5CC6(CCN(CC7CCN(c8ccc(C9CCC(=O)NC9=O)cn8)CC7)CC6)C5)s4)cn3)ccc2c1` (racemic) [Example 88, rac-7-[5-(5-{7-[(1-{5-[(3R)-2,6-dioxopiperidin-3-yl]pyridin-2-yl}piperidin-4-yl)methyl]-2,7-diazaspiro[3.5]nonan-2-yl}-1,3,4-thiadiazol-2-yl)-4-[(oxan-4-yl)amino]pyridin-2-yl]pyrrolo[1,2-b]pyridazine-3-carbonitrile] displayed a DC50 of 11 nM. In addition, the Dmax (read-out: Dmax) is 115%.
On the same counts, the results for `CCNc1cc(-c2ccc3cc(C#N)cnn23)ncc1-c1nnc(N2CC3CCC(C2)N3CC2CCN(c3ccc([C@H]4CCC(=O)NC4=O)cn3)CC2)s1` (racemic) [Example 89, rac-7-[5-(5-{8-[(1-{5-[(3R)-2,6-dioxopiperidin-3-yl]pyridin-2-yl}piperidin-4-yl)methyl]-3,8-diazabicyclo[3.2.1]octan-3-yl}-1,3,4-thiadiazol-2-yl)-4-(ethylamino)pyridin-2-yl]pyrrolo[1,2-b]pyridazine-3-carbonitrile] are 24 nM and 112%.
The compound `N#Cc1cnn2c(-c3cc(NC4CCOCC4)c(-c4nnc(C56CCC(CN7CCc8cc(C9CCC(=O)NC9=O)ccc8C7)(CC5)CC6)s4)cn3)ccc2c1` (racemic) [Example 90, rac-7-(5-{5-[4-({6-[(3R)-2,6-dioxopiperidin-3-yl]-1,2,3,4-tetrahydroisoquinolin-2-yl}methyl)bicyclo[2.2.2]octan-1-yl]-1,3,4-thiadiazol-2-yl}-4-[(oxan-4-yl)amino]pyridin-2-yl)pyrrolo[1,2-b]pyridazine-3-carbonitrile] returned a DC50 of 64 nM. Further, the Dmax (read-out: Dmax) was 25%.
On the same counts, the results for `N#Cc1cnn2c(-c3cc(NC4CCOCC4)c(-c4nnc(N5CCN(CC6CCN(c7ccc(N8CCC(=O)NC8=O)cc7)C6)CC5)s4)cn3)ccc2c1` (racemic) [Example 91, rac-7-{5-[5-(4-{[(3R)-1-[4-(2,4-dioxo-1,3-diazinan-1-yl)phenyl]pyrrolidin-3-yl]methyl}piperazin-1-yl)-1,3,4-thiadiazol-2-yl]-4-[(oxan-4-yl)amino]pyridin-2-yl}pyrrolo[1,2-b]pyridazine-3-carbonitrile] are 97 nM and 32%.
Compound `N#Cc1cnn2c(-c3cc(N[C@H]4CCOC4)c(-c4nnc(N5CCN(CC6CCN(c7ccc(C8CCC(=O)NC8=O)cn7)CC6)CC5)s4)cn3)ccc2c1` (mixture of isomers) [Example 92, 7-[5-(5-{4-[(1-{5-[(3RS)-2,6-dioxopiperidin-3-yl]pyridin-2-yl}piperidin-4-yl)methyl]piperazin-1-yl}-1,3,4-thiadiazol-2-yl)-4-{[(3S)-oxolan-3-yl]amino}pyridin-2-yl]pyrrolo[1,2-b]pyridazine-3-carbonitrile] gave a DC50 of 24 nM. For the same compound, the Dmax (read-out: Dmax) amounted to 114%.
Compound `N#Cc1cnn2c(-c3cc(N[C@@H]4CCOC4)c(-c4nnc(N5CC6CCC(C5)N6CC5CCN(c6ccc(C7CCC(=O)NC7=O)cn6)CC5)s4)cn3)ccc2c1` (mixture of isomers) [Example 94, 7-[5-(5-{8-[(1-{5-[(3RS)-2,6-dioxopiperidin-3-yl]pyridin-2-yl}piperidin-4-yl)methyl]-3,8-diazabicyclo[3.2.1]octan-3-yl}-1,3,4-thiadiazol-2-yl)-4-{[(3R)-oxolan-3-yl]amino}pyridin-2-yl]pyrrolo[1,2-b]pyridazine-3-carbonitrile] returned a DC50 of 10 nM. The Dmax (read-out: Dmax) came to 114%.
In turn, `N#Cc1cnn2c(-c3cc(NC4CC4)c(-c4nnc(N5CC6CCC(C5)N6CC5CCN(c6ccc([C@H]7CCC(=O)NC7=O)cn6)CC5)s4)cn3)ccc2c1` (racemic) [Example 95, rac-7-[4-(cyclopropylamino)-5-(5-{8-[(1-{5-[(3R)-2,6-dioxopiperidin-3-yl]pyridin-2-yl}piperidin-4-yl)methyl]-3,8-diazabicyclo[3.2.1]octan-3-yl}-1,3,4-thiadiazol-2-yl)pyridin-2-yl]pyrrolo[1,2-b]pyridazine-3-carbonitrile] displayed a DC50 of 27 nM. In addition, where the note is “read-out: Dmax”, the Dmax came out at 108%.
On the same counts, the results for `N#Cc1cnn2c(-c3cc(NC4CCC4)c(-c4nnc(N5CC6CCC(C5)N6CC5CCN(c6ccc([C@H]7CCC(=O)NC7=O)cn6)CC5)s4)cn3)ccc2c1` (racemic) [Example 96, rac-7-[4-(cyclobutylamino)-5-(5-{8-[(1-{5-[(3R)-2,6-dioxopiperidin-3-yl]pyridin-2-yl}piperidin-4-yl)methyl]-3,8-diazabicyclo[3.2.1]octan-3-yl}-1,3,4-thiadiazol-2-yl)pyridin-2-yl]pyrrolo[1,2-b]pyridazine-3-carbonitrile] are 83 nM and 103%.
On the same counts, the results for `C[C@H](C#N)Nc1cc(-c2ccc3cc(C#N)cnn23)ncc1-c1nnc(N2CCN(CC3CCN(c4ccc(C5CCC(=O)NC5=O)cc4)CC3)CC2)s1` (mixture of isomers) [Example 97, 7-(4-{[(1R)-1-cyanoethyl]amino}-5-(5-{4-[(1-{4-[(3RS)-2,6-dioxopiperidin-3-yl]phenyl}piperidin-4-yl)methyl]piperazin-1-yl}-1,3,4-thiadiazol-2-yl)pyridin-2-yl)pyrrolo[1,2-b]pyridazine-3-carbonitrile] are 18 nM and 111%.
In turn, `N#Cc1cnn2c(-c3cc(N[C@@H]4CCOC4)c(-c4nnc(N5CC6CCC(C5)N6CC5CCN(c6ccc(C7CCC(=O)NC7=O)cc6)CC5)s4)cn3)ccc2c1` (mixture of isomers) [Example 98, 7-[5-(5-{8-[(1-{4-[(3RS)-2,6-dioxopiperidin-3-yl]phenyl}piperidin-4-yl)methyl]-3,8-diazabicyclo[3.2.1]octan-3-yl}-1,3,4-thiadiazol-2-yl)-4-{[(3R)-oxolan-3-yl]amino}pyridin-2-yl]pyrrolo[1,2-b]pyridazine-3-carbonitrile] showed a half-maximal degradation concentration (DC50) of 16 nM. For the same compound, the Dmax (read-out: Dmax) was determined as 105%.
For `N#Cc1cnn2c(-c3cc(NC4CC4)c(-c4nnc(N5CC6CCC(C5)N6CC5CCN(c6ccc([C@H]7CCC(=O)NC7=O)cc6)CC5)s4)cn3)ccc2c1` (racemic) [Example 99, rac-7-[4-(cyclopropylamino)-5-(5-{8-[(1-{4-[(3R)-2,6-dioxopiperidin-3-yl]phenyl}piperidin-4-yl)methyl]-3,8-diazabicyclo[3.2.1]octan-3-yl}-1,3,4-thiadiazol-2-yl)pyridin-2-yl]pyrrolo[1,2-b]pyridazine-3-carbonitrile] the same measures were 56 nM and 73%.
Consider `N#Cc1cnn2c(-c3cc(NC4CCOCC4)c(-c4nnc(N5CCN(C[C@H]6[C@H]7CN(c8ccc(C9CCC(=O)NC9=O)cn8)C[C@@H]67)CC5)s4)cn3)ccc2c1` (mixture of isomers) [Example 100, 7-{5-[5-(4-{[(1RS&,5SR&,6RS&)-3-{5-[(3RS)-2,6-dioxopiperidin-3-yl]pyridin-2-yl}-3-azabicyclo[3.1.0]hexan-6-yl]methyl}piperazin-1-yl)-1,3,4-thiadiazol-2-yl]-4-[(oxan-4-yl)amino]pyridin-2-yl}pyrrolo[1,2-b]pyridazine-3-carbonitrile], for which it took 20 nM to reach half-maximal degradation (DC50) and the Dmax came to 95%.
On the same counts, the results for `N#Cc1cnn2c(-c3cc(NC4CCOCC4)c(-c4nnc(N5CC6CCC(C5)N6CC5[C@H]6CN(c7ccc([C@H]8CCC(=O)NC8=O)cn7)C[C@@H]56)s4)cn3)ccc2c1` (mixture of isomers) [Example 101, 7-{5-[5-(8-{[(1RS&,5SR&,6RS&)-3-{5-[(3RS)-2,6-dioxopiperidin-3-yl]pyridin-2-yl}-3-azabicyclo[3.1.0]hexan-6-yl]methyl}-3,8-diazabicyclo[3.2.1]octan-3-yl)-1,3,4-thiadiazol-2-yl]-4-[(oxan-4-yl)amino]pyridin-2-yl}pyrrolo[1,2-b]pyridazine-3-carbonitrile] are 7 nM and 55%.

What is called DC50 is the midpoint of the concentration-degradation curve. Lower therefore signals degradation at low concentration. Broadly, the Dmax is the greatest extent of degradation seen.
